Broadly, the IC50 is the concentration that inhibits the measured activity by half.

SMILES strings stand for the structures. Bounds are passed on as bounds.

The target in assay [1] is Cyclin-dependent kinase 2/cyclin E1 (Homo sapiens, UniProt P24941). The experiment in a line: Inhibition of human CDK2/CyclinE expressed in baculovirus insect cell system using Rb as substrate after 30 mins by scintillation counting.
In a further assay the test system is RKO. The experiment in a line: Antiproliferative activity against human RKO cells after 5 days by MTT assay. The format is functional, cell-based. Particulars: 120 h. A general note: Formazan colour is commonly taken as a measure of viable cells.
The next assay deals with MDA-MB-435. The experiment in a line: Antiproliferative activity against human MDA-MB-435 cells after 5 days by MTT assay. The format is functional, cell-based. Particulars: MDA-MB-435, 120 h.
The nature of assay [2]: Cell cycle arrest in human 1043SK cells assessed as accumulation at G1 phase measuring reduction of BrdU incorporation of into cellular DNA by ELISA. In kind it is functional, cell-based.

`COc1cc[nH]c1/C=C1\C(=O)Nc2ccccc21`: in assay [1], half-maximal inhibition (IC50) was put at 5360 nM.
As to `COc1cc[nH]c1/C=C1\C(=O)Nc2ccc(F)cc21`, the IC50 was 847 nM in assay [1], 11900 nM in the assay with RKO and > 30000 nM in the assay on MDA-MB-435.
For the molecule `COc1ccc2c(c1)/C(=C/c1[nH]ccc1OC)C(=O)N2`, the IC50 in assay [1] is 209 nM; in the assay with RKO, 3860 nM; in the assay on MDA-MB-435 it was 8080 nM.
Consider `COc1cc[nH]c1/C=C1\C(=O)Nc2ccc([N+](=O)[O-])cc21`, for which the values for the IC50 (in assay [1]; in the assay on RKO; in the assay on MDA-MB-435) were 39 nM, 692 nM and 7460 nM, respectively.
Turning to `COc1cc[nH]c1/C=C1\C(=O)Nc2ccc([N+](=O)[O-])c(-n3ccnc3)c21`, the IC50 in assay [1] is 1750 nM; in the assay on RKO it was 3920 nM; in the assay with MDA-MB-435 it was > 30000 nM.
With `COc1cc[nH]c1/C=C1\C(=O)Nc2ccc([N+](=O)[O-])c(N3CCNC(C(N)=O)C3)c21` (centres undefined), the IC50 was determined as 28 nM in assay [1], 449 nM in the assay with RKO and 1270 nM in the assay on MDA-MB-435.
As for `COc1cc[nH]c1/C=C1\C(=O)Nc2ccc([N+](=O)[O-])c(N3CCCC(C(N)=O)C3)c21` (centres undefined), the figures for the IC50 (in assay [1]; in the assay with RKO; in the assay on MDA-MB-435) were 6 nM, 192 nM and 623 nM, respectively.
For `COc1cc[nH]c1/C=C1\C(=O)Nc2ccc([N+](=O)[O-])c(N3CC[C@H](C(N)=O)C3)c21` the same measures were 5 nM, 50 nM and 163 nM.
`COc1cc[nH]c1/C=C1\C(=O)Nc2ccc([N+](=O)[O-])c(N3CC[C@@H](O)C3)c21`: the IC50 in assay [1] amounted to 3 nM; in the assay with RKO, 32 nM; in the assay with MDA-MB-435, 88 nM; in assay [2], 830 nM.
Consider `COc1cc[nH]c1/C=C1\C(=O)Nc2ccc([N+](=O)[O-])c(N3CC[C@H](O)C3)c21`, for which the IC50 in assay [1] was 5 nM; in the assay with RKO, 37 nM; in the assay on MDA-MB-435 it was 104 nM.
With `COc1cc[nH]c1/C=C1\C(=O)Nc2ccc([N+](=O)[O-])c(N3CCCC(O)C3)c21` (centres undefined), the IC50 in assay [1] is 2 nM; with RKO, 105 nM; with MDA-MB-435, 250 nM.
As for `COc1cc[nH]c1/C=C1\C(=O)Nc2ccc([N+](=O)[O-])c(N3CCC(O)CC3)c21`, the IC50 was 4 nM in assay [1], < 10 nM in the assay with RKO and 46 nM in the assay with MDA-MB-435.
As for `COc1cc[nH]c1/C=C1\C(=O)Nc2ccc([N+](=O)[O-])c(N3CCCC(CO)C3)c21` (centres undefined), the IC50 in assay [1] was found to be 2 nM; in the assay with RKO it was 124 nM; in the assay with MDA-MB-435 it was 441 nM.
Take `COc1cc[nH]c1/C=C1\C(=O)Nc2ccc([N+](=O)[O-])c(N[C@H]3CC[C@H](O)CC3)c21`: the IC50 was 6 nM in assay [1], 8040 nM with RKO and 8550 nM in the assay with MDA-MB-435.
Consider `COc1cc[nH]c1/C=C1\C(=O)Nc2ccc([N+](=O)[O-])c(NC3CCNCC3)c21`, for which the IC50 in assay [1] was found to be 5 nM; in the assay on RKO, 24 nM; in the assay with MDA-MB-435, 139 nM.
For `COc1cc[nH]c1/C=C1\C(=O)Nc2ccc([N+](=O)[O-])c(N3CCC(N)CC3)c21`, the IC50 in assay [1] is 5 nM; in the assay with RKO, < 10 nM; in the assay with MDA-MB-435 it was < 10 nM.
As to `COc1cc[nH]c1/C=C1\C(=O)Nc2ccc([N+](=O)[O-])c(N3CC[C@@H](N)C3)c21`, the values for the IC50 (in assay [1]; with RKO; with MDA-MB-435) were 3 nM, < 10 nM and < 10 nM, respectively.
As for `COc1cc[nH]c1/C=C1\C(=O)Nc2ccc([N+](=O)[O-])c(N3CC[C@@H](NC=O)C3)c21`, the IC50 in assay [1] was found to be 3 nM; in the assay with RKO, 32 nM; with MDA-MB-435 it was 33 nM.
Take `COc1cc[nH]c1/C=C1\C(=O)Nc2ccc([N+](=O)[O-])c(N[C@H]3CC[C@H](N)C3)c21` (racemic): the IC50 in assay [1] is 5 nM; in the assay on RKO, < 15 nM; in the assay with MDA-MB-435 it was 61 nM.
For `COc1cc[nH]c1/C=C1\C(=O)Nc2ccc([N+](=O)[O-])c(N[C@H]3CC[C@H](O)C3)c21` (racemic) the same measures were 5 nM, 339 nM and 1000 nM.
